Tests used:
MLKL [1] = biological target: T1, MLKL (Homo sapiens, UniProt Q8NB16); experiment: MLKL degradation assay in HepG2 cell line (western blot); format: cell-based; design: endogenous in cells; host or cells: HepG2 or HaCaT; settings: cell line not given; for Degradation assay (Degradation %) 1 μM: compound 1 μM; for Degradation assay (Degradation %) 10 μM: compound 10 μM
T1 sequence (Q8NB16 1-471): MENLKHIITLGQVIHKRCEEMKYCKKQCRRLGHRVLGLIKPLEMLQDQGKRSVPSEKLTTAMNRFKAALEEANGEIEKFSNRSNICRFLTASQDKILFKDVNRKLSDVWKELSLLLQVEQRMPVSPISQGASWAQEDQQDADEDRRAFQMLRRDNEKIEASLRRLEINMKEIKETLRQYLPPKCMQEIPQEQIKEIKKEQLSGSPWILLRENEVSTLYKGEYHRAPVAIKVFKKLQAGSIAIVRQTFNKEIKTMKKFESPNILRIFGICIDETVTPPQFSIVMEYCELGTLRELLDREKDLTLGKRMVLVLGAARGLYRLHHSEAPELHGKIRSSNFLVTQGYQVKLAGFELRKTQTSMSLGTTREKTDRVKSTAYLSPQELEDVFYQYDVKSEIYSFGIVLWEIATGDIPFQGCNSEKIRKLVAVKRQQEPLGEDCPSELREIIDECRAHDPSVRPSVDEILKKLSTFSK
Method in brief: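 HepG2 cells were treated 20-24 h at 37 °C with compound at 1 or 10 μM final. RIPA lysates were normalized by BCA, and 10-15 μg protein per lane was resolved by SDS-PAGE. MLKL was detected by western blot with chemiluminescence.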

MLKL [2] = biological target: T1, MLKL; experiment: Measurement of binding affinity with MLKL receptor (competitive binding assay, Kd); design: made in house; host or cells: HEK 293 cell line (T7 phage in E. coli BL21-derived host is also described)
Method in brief: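 qPCR of MLKL eluted from liganded beads served as the read-out, from which Kd was derived. The protein was made in HEK 293 cells with a DNA tag, and test compounds competed with the bead-bound ligand at 0.9% final DMSO.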

FADD−/− Jurkat cells = experiment: Necroptosis inhibition assay, TNF-α-induced necroptosis (CellTiter-Glo 2.0); format: cell-based, human; settings: TNF-α 15 ng/mL; for Necroptosis inhibition assay (Rescue %) 1.1 μM: compound 1.1 µM; for Necroptosis inhibition assay (Rescue %) 10 μM: compound 10 μM; for Necroptosis inhibition assay (Rescue %) 1 μM: compound 1 μM
Method in brief: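 FADD−/− Jurkat cells preincubated 30 min at room temperature with compound at 0.1, 1 and 10 μM final, then stimulated with TNF-α (15 ng/mL final) for 20–24 h at 37 °C, 5% CO2. Viability read as ATP luminescence; cytotoxicity and necroptosis inhibition rate calculated from luminescence values.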

| SMILES | Degradation assay (Degradation %) 1 μM (MLKL [1]) | Degradation assay (Degradation %) 10 μM (MLKL [1]) | Kd (MLKL [2]) | Necroptosis inhibition assay (Rescue %) 1.1 μM (FADD−/− Jurkat cells) | Necroptosis inhibition assay (Rescue %) 10 μM (FADD−/− Jurkat cells) | Necroptosis inhibition assay (Rescue %) 1 μM (FADD−/− Jurkat cells) |
| --- | --- | --- | --- | --- | --- | --- |
| Nc1ncc(-c2cnn(C3CCN(CCC4CCN(C(=O)C5CN(c6ccc7nnn(C8CCC(=O)NC8=O)c(=O)c7c6)C5)CC4)CC3)c2)nc1C(=O)O[C@@H](C(=O)Nc1ccc(F)cc1)c1ccccc1 (stereo partly drawn) [TDH-333, (R)-2-((4-fluorophenyl)amino)-2-oxo-1-phenylethyl 3-amino-6-(1-(1-(2-(1-(1-(3-(2,6-dioxopiperidin-3-yl)-4-oxo-3,4-dihydrobenzo[d][1,2,3]triazin-6-yl)azetidine-3-carbonyl)piperidin-4-yl)ethyl)piperidin-4-yl)-1H-pyrazol-4-yl)pyrazine-2-carboxylate] | 57.66% | 71.32% | 4.1 nM | 58.92 (1.1µM) % | 36.65% |  |
| Nc1ncc(-c2cnn(C3CCN(CCC4CCN(C(=O)CNc5ccc6nnn(C7CCC(=O)NC7=O)c(=O)c6c5)CC4)CC3)c2)nc1C(=O)O[C@@H](C(=O)Nc1ccc(F)cc1)c1ccccc1 (stereo partly drawn) [TDH-334, (R)-2-((4-fluorophenyl)amino)-2-oxo-1-phenylethyl 3-amino-6-(1-(1-(2-(1-((3-(2,6-dioxopiperidin-3-yl)-4-oxo-3,4-dihydrobenzo[d][1,2,3]triazin-6-yl)glycyl)piperidin-4-yl)ethyl)piperidin-4-yl)-1H-pyrazol-4-yl)pyrazine-2-carboxylate] | 75.98% | 83.61% | 0.82 nM | 86.58 (1.1 µM) % | 50.45% |  |
| Nc1ncc(-c2cnn(C3CCN(CC4CCN(C(=O)CCc5cccc6c5C(=O)N(C5CCC(=O)NC5=O)C6=O)CC4)CC3)c2)nc1C(=O)O[C@@H](C(=O)Nc1ccc(F)cc1)c1ccccc1 (stereo partly drawn) [TDH-336, (R)-2-((4-fluorophenyl)amino)-2-oxo-1-phenylethyl 3-amino-6-(1-(1-((1-(3-(2-(2,6-dioxopiperidin-3-yl)-1,3-dioxoisoindolin-4-yl)propanoyl)piperidin-4-yl)methyl)piperidin-4-yl)-1H-pyrazol-4-yl)pyrazine-2-carboxylate] | 73.04% | 66.71% | 1.4 nM |  | 19.67% | 39.89% |
| Nc1ncc(-c2cnn(C3CCN(C(=O)CC4CCN(C(=O)COc5cccc6c5C(=O)N(C5CCC(=O)NC5=O)C6=O)CC4)CC3)c2)nc1C(=O)O[C@@H](C(=O)Nc1ccc(F)cc1)c1ccccc1 (stereo partly drawn) [TDH-337, (R)-2-((4-fluorophenyl)amino)-2-oxo-1-phenylethyl 3-amino-6-(1-(1-(2-(1-(2-((2-(2,6-dioxopiperidin-3-yl)-1,3-dioxoisoindolin-4-yl)oxy)acetyl)piperidin-4-yl)acetyl)piperidin-4-yl)-1H-pyrazol-4-yl)pyrazine-2-carboxylate] | 46.82% | 65.07% | 2.5 nM |  | 45.5% | 32.31% |
| Nc1ncc(-c2cnn(C3CCN(C(=O)CC4CCN(C(=O)COc5ccc6c(c5)C(=O)N(C5CCC(=O)NC5=O)C6=O)CC4)CC3)c2)nc1C(=O)O[C@@H](C(=O)Nc1ccc(F)cc1)c1ccccc1 (stereo partly drawn) [TDH-338, (R)-2-((4-fluorophenyl)amino)-2-oxo-1-phenylethyl 3-amino-6-(1-(1-(2-(1-(2-((2-(2,6-dioxopiperidin-3-yl)-1,3-dioxoisoindolin-5-yl)oxy)acetyl)piperidin-4-yl)acetyl)piperidin-4-yl)-1H-pyrazol-4-yl)pyrazine-2-carboxylate] | 59.83% | 79.19% | 5.5 nM |  | 50.29% | 50.8% |
| Nc1ncc(-c2cnn(C3CCN(C(=O)CC4CCN(C(=O)CNc5cccc6c5C(=O)N(C5CCC(=O)NC5=O)C6=O)CC4)CC3)c2)nc1C(=O)O[C@@H](C(=O)Nc1ccc(F)cc1)c1ccccc1 (stereo partly drawn) [TDH-339, (R)-2-((4-fluorophenyl)amino)-2-oxo-1-phenylethyl 3-amino-6-(1-(1-(2-(1-((2-(2,6-dioxopiperidin-3-yl)-1,3-dioxoisoindolin-4-yl)glycyl)piperidin-4-yl)acetyl)piperidin-4-yl)-1H-pyrazol-4-yl)pyrazine-2-carboxylate] | 71.36% | 51.92% | 13 nM |  | 12.31% | 12.23% |
| Nc1ncc(-c2cnn(C3CCN(C(=O)CC4CCN(C(=O)CNc5ccc6c(c5)C(=O)N(C5CCC(=O)NC5=O)C6=O)CC4)CC3)c2)nc1C(=O)O[C@@H](C(=O)Nc1ccc(F)cc1)c1ccccc1 (stereo partly drawn) [TDH-340, (R)-2-((4-fluorophenyl)amino)-2-oxo-1-phenylethyl 3-amino-6-(1-(1-(2-(1-((2-(2,6-dioxopiperidin-3-yl)-1,3-dioxoisoindolin-5-yl)glycyl)piperidin-4-yl)acetyl)piperidin-4-yl)-1H-pyrazol-4-yl)pyrazine-2-carboxylate] | 73.39% | 73.33% | 7.5 nM |  | 43.81% | 42.94% |
| Nc1ncc(-c2cnn(C3CCN(C(=O)CC4CCN(C(=O)C5CCN(c6cccc7c6C(=O)N(C6CCC(=O)NC6=O)C7=O)CC5)CC4)CC3)c2)nc1C(=O)O[C@@H](C(=O)Nc1ccc(F)cc1)c1ccccc1 (stereo partly drawn) [TDH-341, (R)-2-((4-fluorophenyl)amino)-2-oxo-1-phenylethyl 3-amino-6-(1-(1-(2-(1-(1-(2-(2,6-dioxopiperidin-3-yl)-1,3-dioxoisoindolin-4-yl)piperidine-4-carbonyl)piperidin-4-yl)acetyl)piperidin-4-yl)-1H-pyrazol-4-yl)pyrazine-2-carboxylate] | 70.78% | 51.56% | 3.5 nM |  | 24.8% | 38.23% |
| Nc1ncc(-c2cnn(C3CCN(C(=O)CC4CCN(C(=O)C5CCN(c6ccc7c(c6)C(=O)N(C6CCC(=O)NC6=O)C7=O)CC5)CC4)CC3)c2)nc1C(=O)O[C@@H](C(=O)Nc1ccc(F)cc1)c1ccccc1 (stereo partly drawn) [TDH-342, (R)-2-((4-fluorophenyl)amino)-2-oxo-1-phenylethyl 3-amino-6-(1-(1-(2-(1-(1-(2-(2,6-dioxopiperidin-3-yl)-1,3-dioxoisoindolin-5-yl)piperidine-4-carbonyl)piperidin-4-yl)acetyl)piperidin-4-yl)-1H-pyrazol-4-yl)pyrazine-2-carboxylate] | 70.74% | 54.03% | 5.8 nM |  | 17.55% | 28.05% |
| Nc1ncc(-c2cnn(C3CCN(C(=O)CC4CCN(c5cccc6c5C(=O)N(C5CCC(=O)NC5=O)C6=O)CC4)CC3)c2)nc1C(=O)O[C@@H](C(=O)Nc1ccc(F)cc1)c1ccccc1 (stereo partly drawn) [TDH-343, (R)-2-((4-fluorophenyl)amino)-2-oxo-1-phenylethyl 3-amino-6-(1-(1-(2-(1-(2-(2,6-dioxopiperidin-3-yl)-1,3-dioxoisoindolin-4-yl)piperidin-4-yl)acetyl)piperidin-4-yl)-1H-pyrazol-4-yl)pyrazine-2-carboxylate] | 31.43% | 43.78% | 11 nM |  | 14.42% | 12.75% |
| Nc1ncc(-c2cnn(C3CCN(C(=O)CC4CCN(c5ccc6c(c5)C(=O)N(C5CCC(=O)NC5=O)C6=O)CC4)CC3)c2)nc1C(=O)O[C@@H](C(=O)Nc1ccc(F)cc1)c1ccccc1 (stereo partly drawn) [TDH-344, (R)-2-((4-fluorophenyl)amino)-2-oxo-1-phenylethyl 3-amino-6-(1-(1-(2-(1-(2-(2,6-dioxopiperidin-3-yl)-1,3-dioxoisoindolin-5-yl)piperidin-4-yl)acetyl)piperidin-4-yl)-1H-pyrazol-4-yl)pyrazine-2-carboxylate] | 64.15% | 47.75% | 13 nM |  | 17.63% | 14.48% |
